{
  "source": "patent US4025623A",
  "about": "“4'-Epi-6'-hydroxyadriamycin and method of use” (priority 1974, dated 1977)",
  "key": {"[1]": {"tested_on": "Moloney Sarcoma virus (MSV)", "test": "MSV foci formation in mouse embryo fibroblasts (in vitro)", "assay_type": "cell-based", "details": "Fibroblast, read-out: ID50 MSV foci formation", "procedure": "(§1) (2) Mouse embryo fibroblasts (MEF) were plated on 35 mm. Falcon plastic dishes, infected 24 hours later with Moloney Sarcoma virus (MSV), and treated for 3 days with different concentrations of the compounds of the invention. The number of foci of transformed cells was microscopically ascertained 5 days after the infection. Uninfected MEF were similarly treated, and at the end of the test, the cells were counted in a hemocytometer. In all the tests, the cells were incubated in a 5% CO2 incubator at 37° C.\n(§2) The test compounds were dissolved in distilled water and then diluted in culture medium.\n(§3) The results are reported in Table I as ID50 (Inhibiting Dose 50%), calculated on dose-effects lines."}, "HeLa cells": {"tested_on": "HeLa cells", "test": "HeLa cells cloning efficiency (in vitro)", "assay_type": "cell-based", "details": "for IC50: Homo sapiens, HeLa, read-out: ID50 HeLa cells cloning efficiency", "procedure": "(1) HeLa cells were exposed to each of compounds (I) and (V) for 2, 8 and 24 hours, after which the compounds were removed and the cells seeded on […]. Falcon plastic dishes (200 cells/plate) in a growth medium. The number of colonies was ascertained microscopically 5 days later.\nas §2, §3"}, "[2]": {"test": "Toxicity in Sarcoma 180 bearing CD 1 mice (toxic deaths, autopsy)", "assay_type": "in vivo", "procedure": "(§4) The antitumor activity of the compounds of the invention was tested on ascites Sarcoma 180. 3 month old CD 1 mice were used. Sarcoma 180 ascites cells were inoculated intraperitoneally (10^6 cells/mouse).\n(§5) The test compounds were dissolved in distilled water, then diluted in Ringer's solution, and administered intraperitoneally 1 day after the tumor implant (10 ml./kg. of body weight). The toxicity of the test compounds was evaluated by macroscopic autoptic examination, mainly in terms of reduction in spleen size. The comparison of the effectiveness of the tested compounds is based on the maximum increase in median survival time, as compared to untreated controls, over the dose range used. The number of Long Term Survivors (LTS) refers to tumor-free mice at the end of the test (60 days)."}, "ascites Sarcoma 180": {"tested_on": "ascites Sarcoma 180", "test": "Antitumor activity on ascites Sarcoma 180 in CD 1 mice", "assay_type": "in vivo", "details": "for LTS, Long Term survivors: after 60 days; for T/C, median survival time as % over controls: 1 treatment i.p. at day 1", "procedure": "as §4, §5"}, "[3]": {"test": "MEF proliferation (uninfected mouse embryo fibroblasts, in vitro)", "assay_type": "cell-based", "details": "time of exposure 72 hours, read-out: ID50 MEF proliferation", "procedure": "as §1, §2"}},
  "note": "Read-outs that look alike come from different tables or passages of the source.",
  "data": [
    {"smiles": "COc1cccc2c1C(=O)c1c(O)c3c(c(O)c1C2=O)C[C@@](O)(C(=O)CO)C[C@@H]3O[C@H]1C[C@H](N)[C@@H](O)[C@H](CO)O1", "note": "[4'-epi-6'-hydroxyadriamycin]", "values": [
      {"measurement": "IC50", "setting": "[1]; 72 h", "value": 0.025, "unit": "µg/mL"},
      {"measurement": "IC50", "setting": "HeLa cells; 2 h", "value": 0.9, "unit": "µg/mL"},
      {"measurement": "IC50", "setting": "HeLa cells; 8 h", "value": 1, "unit": "µg/mL"},
      {"measurement": "IC50", "setting": "HeLa cells; 24 h", "value": 1, "unit": "µg/mL"},
      {"measurement": "Toxicity (in words)", "setting": "[2]; 15 mg./kg. i.p. at day 1", "value": "not toxic"},
      {"measurement": "LTS, Long Term survivors", "setting": "ascites Sarcoma 180; 7.5 mg./kg. i.p. at day 1", "value": "1/10"},
      {"measurement": "T/C, median survival time as % over controls", "setting": "ascites Sarcoma 180; 7.5 mg./kg.", "value": 143, "unit": "%"},
      {"measurement": "LTS, Long Term survivors", "setting": "ascites Sarcoma 180; 10 mg./kg. i.p. at day 1", "value": "2/10"},
      {"measurement": "T/C, median survival time as % over controls", "setting": "ascites Sarcoma 180; 10 mg./kg.", "value": 162, "unit": "%"},
      {"measurement": "LTS, Long Term survivors", "setting": "ascites Sarcoma 180; 15 mg./kg. i.p. at day 1", "value": "2/10"},
      {"measurement": "T/C, median survival time as % over controls", "setting": "ascites Sarcoma 180; 15 mg./kg.", "value": 134, "unit": "%"},
      {"measurement": "CC50 at 72 h", "setting": "[3]", "value": 0.05, "unit": "µg/mL"}
    ]},
    {"smiles": "COc1cccc2c1C(=O)c1c(O)c3c(c(O)c1C2=O)C[C@@](O)(C(C)=O)C[C@@H]3O[C@H]1C[C@H](N)[C@@H](O)[C@H](CO)O1", "note": "[4'-epi-6'-hydroxydaunomycin]", "values": [
      {"measurement": "IC50", "setting": "[1]; time of exposure 72 hours", "value": 0.1, "unit": "µg/mL"},
      {"measurement": "IC50", "setting": "HeLa cells; time of exposure 2 hours", "value": "> 10", "unit": "µg/mL"},
      {"measurement": "IC50", "setting": "HeLa cells; time of exposure 8 hours", "value": "> 10", "unit": "µg/mL"},
      {"measurement": "IC50", "setting": "HeLa cells; time of exposure 24 hours", "value": 1.3, "unit": "µg/mL"},
      {"measurement": "decrease of activity as compared to parent compound", "setting": "HeLa cells; in vitro systems tested (HeLa cells, MSV foci, MEF proliferation), compared with 4'-epi-6'-hydroxyadriamycin versus adriamycin", "value": "The decrease of activity was higher"},
      {"measurement": "Toxicity, number of mice which died as a result of the toxic effects of the compound", "setting": "[2]; 50 mg./kg. i.p. at day 1", "value": "1/10"},
      {"measurement": "T/C, median survival time as % over controls", "setting": "ascites Sarcoma 180; 2 mg./kg.", "value": 100, "unit": "%"},
      {"measurement": "T/C, median survival time as % over controls", "setting": "ascites Sarcoma 180; 10 mg./kg.", "value": 167, "unit": "%"},
      {"measurement": "T/C, median survival time as % over controls", "setting": "ascites Sarcoma 180; 50 mg./kg.", "value": 137, "unit": "%"},
      {"measurement": "CC50 at 72 h", "setting": "[3]", "value": 0.25, "unit": "µg/mL"}
    ]},
    {"smiles": "COc1cccc2c1C(=O)c1c(O)c3c(c(O)c1C2=O)C[C@@](O)(C(=O)CO)C[C@@H]3O[C@H]1C[C@H](N)[C@H](O)[C@H](C)O1", "note": "[Adriamycin, adriamycin]", "values": [
      {"measurement": "IC50", "setting": "[1]; 72 h", "value": 0.0025, "unit": "µg/mL"},
      {"measurement": "IC50", "setting": "HeLa cells; 2 h", "value": 0.28, "unit": "µg/mL"},
      {"measurement": "IC50", "setting": "HeLa cells; 8 h", "value": 0.11, "unit": "µg/mL"},
      {"measurement": "IC50", "setting": "HeLa cells; 24 h", "value": 0.018, "unit": "µg/mL"},
      {"measurement": "Toxicity, number of mice which died as a result of the toxic effects of the compound", "setting": "[2]; 5 mg./kg. i.p. at day 1", "value": "7/125"},
      {"measurement": "Toxicity, number of mice which died as a result of the toxic effects of the compound", "setting": "[2]; 10 mg./kg. i.p. at day 1", "value": "18/139"},
      {"measurement": "LTS, Long Term survivors", "setting": "ascites Sarcoma 180; 0.5 mg./kg. i.p. at day 1", "value": "1/10"},
      {"measurement": "T/C, median survival time as % over controls", "setting": "ascites Sarcoma 180; 0.5 mg./kg.", "value": 142, "unit": "%"},
      {"measurement": "LTS, Long Term survivors", "setting": "ascites Sarcoma 180; 1 mg./kg. i.p. at day 1", "value": "25/159"},
      {"measurement": "T/C, median survival time as % over controls", "setting": "ascites Sarcoma 180; 1 mg./kg.", "value": 183, "unit": "%"},
      {"measurement": "LTS, Long Term survivors", "setting": "ascites Sarcoma 180; 2 mg./kg. i.p. at day 1", "value": "30/125"},
      {"measurement": "T/C, median survival time as % over controls", "setting": "ascites Sarcoma 180; 2 mg./kg.", "value": 210, "unit": "%"},
      {"measurement": "LTS, Long Term survivors", "setting": "ascites Sarcoma 180; 5 mg./kg. i.p. at day 1", "value": "27/125"},
      {"measurement": "T/C, median survival time as % over controls", "setting": "ascites Sarcoma 180; 5 mg./kg.", "value": 243, "unit": "%"},
      {"measurement": "LTS, Long Term survivors", "setting": "ascites Sarcoma 180; 10 mg./kg. i.p. at day 1", "value": "18/139"},
      {"measurement": "T/C, median survival time as % over controls", "setting": "ascites Sarcoma 180; 10 mg./kg.", "value": 212, "unit": "%"},
      {"measurement": "CC50 at 72 h", "setting": "[3]", "value": 0.007, "unit": "µg/mL"}
    ]},
    {"smiles": "COc1cccc2c1C(=O)c1c(O)c3c(c(O)c1C2=O)C[C@@](O)(C(C)=O)C[C@@H]3O[C@H]1C[C@H](N)[C@H](O)[C@H](C)O1", "note": "[Daunomycin, daunomycin]", "values": [
      {"measurement": "IC50", "setting": "[1]; 72 h", "value": 0.0055, "unit": "µg/mL"},
      {"measurement": "IC50", "setting": "HeLa cells; 2 h", "value": 0.03, "unit": "µg/mL"},
      {"measurement": "IC50", "setting": "HeLa cells; 8 h", "value": 0.013, "unit": "µg/mL"},
      {"measurement": "IC50", "setting": "HeLa cells; 24 h", "value": 0.003, "unit": "µg/mL"},
      {"measurement": "Toxicity, number of mice which died as a result of the toxic effects of the compound", "setting": "[2]; 5 mg./kg. i.p. at day 1", "value": "14/50"},
      {"measurement": "Toxicity, number of mice which died as a result of the toxic effects of the compound", "setting": "[2]; 8 mg./kg. i.p. at day 1", "value": "7/10"},
      {"measurement": "LTS, Long Term survivors", "setting": "ascites Sarcoma 180; 0.5 mg./kg. i.p. at day 1", "value": "3/20"},
      {"measurement": "T/C, median survival time as % over controls", "setting": "ascites Sarcoma 180; 0.5 mg./kg.", "value": 146, "unit": "%"},
      {"measurement": "LTS, Long Term survivors", "setting": "ascites Sarcoma 180; 1 mg./kg. i.p. at day 1", "value": "8/55"},
      {"measurement": "T/C, median survival time as % over controls", "setting": "ascites Sarcoma 180; 1 mg./kg.", "value": 172, "unit": "%"},
      {"measurement": "LTS, Long Term survivors", "setting": "ascites Sarcoma 180; 2 mg./kg. i.p. at day 1", "value": "11/68"},
      {"measurement": "T/C, median survival time as % over controls", "setting": "ascites Sarcoma 180; 2 mg./kg.", "value": 192, "unit": "%"},
      {"measurement": "T/C, median survival time as % over controls", "setting": "ascites Sarcoma 180; 5 mg./kg.", "value": 176, "unit": "%"},
      {"measurement": "T/C, median survival time as % over controls", "setting": "ascites Sarcoma 180; 8 mg./kg.", "value": 78, "unit": "%"},
      {"measurement": "CC50 at 72 h", "setting": "[3]", "value": 0.009, "unit": "µg/mL"}
    ]}
  ]
}
